# Reference: patent US20030232851A1, “Viral treatment” (The Procter & Gamble Company, priority 1999, published 2003)
# Where “and” joins values, the source holds several entries; their conditions need not be identical. Identical values can stand only once.
# What was measured:
# Type in all cases: cell-based
# Cryptococcus neoformans = experiment: Anti-fungal activity (NCCLS M-27A based), Cryptococcus neoformans
# Procedure: It was active against cryptococcus neoformans and curvularai lunata. The cidal activity for the C. neoformans is high enough that it is clear […] against this yeast. This test was conducted using a method based upon NCCLS reference method M-27A published in 1997. Solvent, medium and growth controls were set-up with the tests. Once these were read to validate the test performance, the QC fungi were read to insure they had expected results. These steps validated the test system. DMSO was used as a drug-chemical solvent. […] The 90% cut-off is necessary for azoles, which are static and not cidal. The FMC or cidal level was determined by sub-culturing a sample from each tube showing no growth.
# HIV-2 cell line, CEMROD = experiment: Long term in vitro study, CEMROD, reverse transcriptase
# Procedure: (§1) A microtiter-based reveres transcriptase (RT) reaction is utilized (Buckheit et al (1991) AIDS Research and Human Retroviruses 7:295-302). Tritiated thymidine triphosphate (NEN)(TTP) is resuspended in distilled water at 5 Ci/ml. Poly rA and oligo dT are prepared as a stock solution which is kept at −20° C. The RT reaction buffer is prepared fresh on a daily basis and consists of 125 μl 1M EGTA, 125 μl water, 125 μl Triton X-100, 50 μl Tris (pH 7.4), 50 μl 1 MDDT, and 40 μl 1M MgCl2. These three solutions are mixed together in a ratio of 1 part TTP, 2.5 parts poly rA:oligo dT, 2.5 parts reaction buffer and 4 parts distilled water. Ten microliters of this reaction mixture is placed in a round bottom microtiter place and 15 μl of virus containing supernatant is added and mixed. The plate is incubated at 37° C. for 60 minutes. Following reaction, the reaction volume is spotted onto filter mats, washed 6 times for 5 minutes each in a 5% sodium phosphate buffer, 2 times for 1 minute each in distilled water, 2 times for 1 minute each in 70% ethanol, and then dried. The dried filter mat is placed in a plastic sample bag, Betaplate scintillation fluid is added and the bag is heat sealed. Incorporated radioactivity is quantified utilizing a Wallac Microbeta scintillation counter.
# Acute infection of most established human cell lines with HIV-1 results in the eventual establishment of a constitutive virus-producing chronically infected cell line. The cells can be passaged for long periods of time in culture without loss of virus production. These cells may be utilized to evaluate the effects of anti-HIV compounds on syncytium formation or to evaluate the effects of anti-HIV compounds on levels of virus production from these cells. […] Each of the cells contains an integrated HIV genome or provirus. Chronically infected CEM, H9 and U937 cell lines have been prepared and cultured by Southern Research Institute, Frederick Md. and are available from them.
# CEM-SS cells chronically infected with HIV isolate, for example SKI (CEM-SKI) are cultured in RPMI1640 tissue culture medium supplemented with 10% fetal bovine serum and antibiotics. […] CEM-SKI or other infected cells with no added drug are used as the control cells. Cells are allowed to grow to a density of approximately 1×10^6 cells/ml and are then passaged at a 1:10 dilution. […] The drug concentration in the flask is then increased two-fold and the cells maintained as above.
# (§2) The cell populations contain integrated copies of the HIV genome and constitutively produce HIV at relatively high levels or are latently infected and only produce virus after stimulation with phorbol esters, tumor necrosis factor or IL6 (U1 and ACH2). Reductions in virus products were observed when quantifying supernatant reverse transcriptase activity,
# A long term in vitro study of 2-(2-thienyl)-imidazolo [4,5-b]pyridine against an HIV-2 cell line, CEMROD was conducted at three different levels. The results with CEMROD cells were reported at weekly intervals.
# HEPG22.2.15 = experiment: Hepatitis B test: toxicity values
# HIV-1 cell line, CEMSKI = experiment: Long term in vitro study, CEMSKI, reverse transcriptase; settings: run through 242 days
# Procedure: as §1, with “Following reaction, the reaction volume is spotted onto filter mats, washed 6 times for 5 minutes each in a 5% sodium phosphate buffer, 2 times for 1 minute each in distilled water, 2 times for 1 minute each in 70% ethanol, and then dried. The dried filter mat is placed in a plastic sample bag, Betaplate scintillation fluid is added and the bag is heat sealed.” left out, “counter. […]” for “counter.”
# as §2, with “activity, […]” for “activity,”
structure (smiles),measurement,setting,value
"c1csc(-c2nc3cccnc3[nH]2)c1 [2-(2-thienyl)-imidazolo [4,5-b]pyridine]",MFC,"Cryptococcus neoformans; Cryptococcus neoformans, cidal level",> 32 µg/mL
same,MIC,"Cryptococcus neoformans; Cryptococcus neoformans, growth inhibited or reduced at least 90%",0.03 µg/mL
same,activity against Cryptococcus neoformans (in words),Cryptococcus neoformans; in vitro,active
same,reverse transcriptase data,"HIV-2 cell line, CEMROD; 7 μg/ml, day 4",8506
same,reverse transcriptase data,"HIV-2 cell line, CEMROD; 7 μg/ml, day 11",9471
same,reverse transcriptase data,"HIV-2 cell line, CEMROD; 7 μg/ml, day 18",6147
same,reverse transcriptase data,"HIV-2 cell line, CEMROD; 7 μg/ml, day 25",6302
same,reverse transcriptase data,"HIV-2 cell line, CEMROD; 7 μg/ml, day 32",5482
same,reverse transcriptase data,"HIV-2 cell line, CEMROD; 7 μg/ml, day 39",7253
same,reverse transcriptase data,"HIV-2 cell line, CEMROD; 7 μg/ml, day 46",4822
same,reverse transcriptase data,"HIV-2 cell line, CEMROD; 7 μg/ml, day 53",7257
same,reverse transcriptase data,"HIV-2 cell line, CEMROD; 7 μg/ml, day 60",7019
same,reverse transcriptase data,"HIV-2 cell line, CEMROD; 7 μg/ml, day 67",7215
same,reverse transcriptase data,"HIV-2 cell line, CEMROD; 7 μg/ml, day 71",9052
same,reverse transcriptase data,"HIV-2 cell line, CEMROD; 7 μg/ml, day 74",6240
same,reverse transcriptase data,"HIV-2 cell line, CEMROD; 7 μg/ml, day 88",10053
same,reverse transcriptase data,"HIV-2 cell line, CEMROD; 7 μg/ml, day 95",7482
same,reverse transcriptase data,"HIV-2 cell line, CEMROD; 7 μg/ml, day 102",8023
same,reverse transcriptase data,"HIV-2 cell line, CEMROD; 7 μg/ml, day 109",13890
same,reverse transcriptase data,"HIV-2 cell line, CEMROD; 15 μg/ml, day 4",7447
same,reverse transcriptase data,"HIV-2 cell line, CEMROD; 15 μg/ml, day 11",8887
same,reverse transcriptase data,"HIV-2 cell line, CEMROD; 15 μg/ml, day 18",5399
same,reverse transcriptase data,"HIV-2 cell line, CEMROD; 15 μg/ml, day 25",5040
same,reverse transcriptase data,"HIV-2 cell line, CEMROD; 15 μg/ml, day 32",4695
same,reverse transcriptase data,"HIV-2 cell line, CEMROD; 15 μg/ml, day 39",6277
same,reverse transcriptase data,"HIV-2 cell line, CEMROD; 15 μg/ml, day 46",2165
same,reverse transcriptase data,"HIV-2 cell line, CEMROD; 15 μg/ml, day 53",6546
same,reverse transcriptase data,"HIV-2 cell line, CEMROD; 15 μg/ml, day 60",5940
same,reverse transcriptase data,"HIV-2 cell line, CEMROD; 15 μg/ml, day 67",3215
same,reverse transcriptase data,"HIV-2 cell line, CEMROD; 15 μg/ml, day 71",7256
same,reverse transcriptase data,"HIV-2 cell line, CEMROD; 15 μg/ml, day 74",4687
same,reverse transcriptase data,"HIV-2 cell line, CEMROD; 15 μg/ml, day 88",8277
same,reverse transcriptase data,"HIV-2 cell line, CEMROD; 15 μg/ml, day 95",5116
same,reverse transcriptase data,"HIV-2 cell line, CEMROD; 15 μg/ml, day 102",6546
same,reverse transcriptase data,"HIV-2 cell line, CEMROD; 15 μg/ml, day 109",10349
same,reverse transcriptase data,"HIV-2 cell line, CEMROD; 30 μg/ml, day 4",4426
same,reverse transcriptase data,"HIV-2 cell line, CEMROD; 30 μg/ml, day 11",7092
same,reverse transcriptase data,"HIV-2 cell line, CEMROD; 30 μg/ml, day 18",3322
same,reverse transcriptase data,"HIV-2 cell line, CEMROD; 30 μg/ml, day 25",3212
same,reverse transcriptase data,"HIV-2 cell line, CEMROD; 30 μg/ml, day 32",3960
same,reverse transcriptase data,"HIV-2 cell line, CEMROD; 30 μg/ml, day 39",4543
same,reverse transcriptase data,"HIV-2 cell line, CEMROD; 30 μg/ml, day 46",1245
same,reverse transcriptase data,"HIV-2 cell line, CEMROD; 30 μg/ml, day 53",2402
same,reverse transcriptase data,"HIV-2 cell line, CEMROD; 30 μg/ml, day 60",2410
same,reverse transcriptase data,"HIV-2 cell line, CEMROD; 30 μg/ml, day 67",1843
same,reverse transcriptase data,"HIV-2 cell line, CEMROD; 30 μg/ml, day 71",2121
same,reverse transcriptase data,"HIV-2 cell line, CEMROD; 30 μg/ml, day 74",1285
same,reverse transcriptase data,"HIV-2 cell line, CEMROD; 30 μg/ml, day 88",2543
same,reverse transcriptase data,"HIV-2 cell line, CEMROD; 30 μg/ml, day 95",2245
same,reverse transcriptase data,"HIV-2 cell line, CEMROD; 30 μg/ml, day 102",2402
same,reverse transcriptase data,"HIV-2 cell line, CEMROD; 30 μg/ml, day 109",1140
same,reverse transcriptase data on continuation (in words),"HIV-2 cell line, CEMROD; run through 242 days",data remained consistent
same,"Toxicity Values, % cell control",HEPG22.2.15; 0.64 μg/ml,108.5%
same,"Toxicity Values, mean",HEPG22.2.15; 0.64 μg/ml,1.359
same,"Toxicity Values, samples 1-3",HEPG22.2.15; 0.64 μg/ml,1.389 and 1.334 and 1.355
same,"Toxicity Values, % cell control",HEPG22.2.15; 2 μg/ml,101.1%
same,"Toxicity Values, mean",HEPG22.2.15; 2 μg/ml,1.266
same,"Toxicity Values, samples 1-3",HEPG22.2.15; 2 μg/ml,1.121 and 1.246 and 1.432
same,"Toxicity Values, % cell control",HEPG22.2.15; 6.4 μg/ml,101.5%
same,"Toxicity Values, mean",HEPG22.2.15; 6.4 μg/ml,1.271
same,"Toxicity Values, samples 1-3",HEPG22.2.15; 6.4 μg/ml,1.249 and 1.157 and 1.407
same,"Toxicity Values, % cell control",HEPG22.2.15; 20 μg/ml,30.7%
same,"Toxicity Values, mean",HEPG22.2.15; 20 μg/ml,0.385
same,"Toxicity Values, samples 1-3",HEPG22.2.15; 20 μg/ml,0.404 and 0.389 and 0.361
same,"Toxicity Values, % cell control",HEPG22.2.15; 64 μg/ml,1.4%
same,"Toxicity Values, mean",HEPG22.2.15; 64 μg/ml,0.017
same,"Toxicity Values, samples 1-3",HEPG22.2.15; 64 μg/ml,0.017 and 0.018
same,"Toxicity Values, % cell control",HEPG22.2.15; 200 μg/ml,1.4%
same,"Toxicity Values, mean",HEPG22.2.15; 200 μg/ml,0.017
same,"Toxicity Values, samples 1-3",HEPG22.2.15; 200 μg/ml,0.018 and 0.017
same,TC50,HEPG22.2.15; first experiment,16.3 µg/mL
same,TC50,HEPG22.2.15; replicate experiment,16.8 µg/mL
same,reverse transcriptase data on continuation (in words),"HIV-1 cell line, CEMSKI",data remained consistent
